Test results published in patent publication US7344710B2 (priority 2001, dated 2008).

Experiments:
HCT116 tumor xenograft = tested on: HCT116 tumor xenograft; set-up: species or system mice; details: mouse, in vivo
B16 tumors = tested on: B16 tumors; set-up: species or system mice; details: mouse, in vivo
[1] = mouse, in vivo

In the case of COBALT, the “Effect on tumor growth (FIG. 6A, 6B)” value (HCT116 tumor xenograft) is reported as “tumors actually shrinking rather than simply slowing”, the “Mice cured / complete tumor regression / long-term tumor-free survival” value (HCT116 tumor xenograft) is reported as “four were apparently cured of their tumor and Four of these seven mice were cured and four of eight and half” and the “Mice developing striking hemorrhagic necrosis of their tumors” value (HCT116 tumor xenograft) is reported as “seven of eight”. The “Time at which a black spot of hemorrhagic necrosis is evident” value (HCT116 tumor xenograft) was 0.3 days, the “Visible hemorrhagic necrosis and disappearance of tumors (FIG. 5)” value (HCT116 tumor xenograft) was “dramatic effects on large subcutaneous tumors” and the “Effect on tumor growth (FIG. 6C)” value (B16 tumors) was “tumors remained small over the four week course of this experiment”. The “Deaths after a single dose of COBALT” value [1] was “three of the mice died” and the “Deaths after the first dose of COBALT” value [1] was “Four mice died”.
